TGI and GI50 data for 19 molecules are collected here from PubChem BioAssay (NCI).

Some test systems named below: MOLT-4 leukemia; SNB-19 CNS; HCT-116 colon; BT-549 breast; HL-60(TB) leukemia; UO-31 renal; SNB-75 CNS; K-562 leukemia; IGROV1 ovarian; MDA-MB-435; HOP-62 NSCLC; TK-10 renal.
What all share (assay): NCI-60 cell line screen, 48 h

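Assay format: 96-well plates, 48-hour exposure. The concentration for 50% growth inhibition is given as GI50. TGI denotes the concentration required for complete inhibition of growth.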 Where only a bound is given, the exact number is not on record here.

Turning to `CC1(C)CC2=C(Sc3ccccc3N2)C(=O)C1C(=O)C(=O)Nc1cc(Cl)ccc1Cl` (stereo unspecified), the TGI with MOLT-4 leukemia, in the experiment with SNB-19 CNS, in the experiment on HCT-116 colon, in the experiment on BT-549 breast, in the experiment on HL-60(TB) leukemia and with UO-31 renal was above 100 µM throughout. The TGI in the experiment on SNB-75 CNS, in the experiment on K-562 leukemia, in the experiment on IGROV1 ovarian and in the experiment on MDA-MB-435 was above 100 µM each time.

On to `Cc1cc(S(=O)(=O)Nc2nc3ccccc3n2-c2ccccc2)c(S)cc1Cl`, for which the TGI with MOLT-4 leukemia, in the experiment on SNB-19 CNS, in the experiment on HCT-116 colon, with BT-549 breast, with HL-60(TB) leukemia and in the experiment with UO-31 renal was above 100 µM each time. Besides, the TGI in the experiment on SNB-75 CNS, in the experiment with K-562 leukemia, in the experiment with IGROV1 ovarian and in the experiment with MDA-MB-435 was above 100 µM each time.

`Cc1cc(C)c2c(=N)c3ccccc3n(CCCCCCO)c2n1`: the TGI came to 23.6 µM with HOP-62 NSCLC; 17.6 µM in the experiment on MOLT-4 leukemia; 18.9 µM with SNB-19 CNS; 17.9 µM in the experiment on TK-10 renal; 23.7 µM in the experiment with BT-549 breast; 6.19 µM in the experiment on HL-60(TB) leukemia. Moreover, the TGI amounted to 6.01 µM in the experiment with UO-31 renal, 5.78 µM with SNB-75 CNS, 10.9 µM in the experiment on IGROV1 ovarian and 16.7 µM in the experiment with MDA-MB-435.

Consider `COc1cc(OC)c2c(O)c(S(=O)(=O)c3ccc(C)cc3)c(=O)oc2c1`, for which the TGI in the experiment on MOLT-4 leukemia, in the experiment on SNB-19 CNS, in the experiment on HCT-116 colon, in the experiment on TK-10 renal, with BT-549 breast and in the experiment on HL-60(TB) leukemia was above 100 µM in each case. For the same molecule, the TGI in the experiment with UO-31 renal, in the experiment on SNB-75 CNS, in the experiment with K-562 leukemia, in the experiment on IGROV1 ovarian and in the experiment with MDA-MB-435 was above 100 µM in each case.

Turning to `COC(=O)/C=C/c1cc(OC)c2oc(-c3ccc(OC)c(OC)c3)c(C(=O)OC)c2c1`, the TGI with MOLT-4 leukemia, with SNB-19 CNS, in the experiment with TK-10 renal, in the experiment with BT-549 breast, with HL-60(TB) leukemia and with UO-31 renal was above 100 µM in each case. Also, the TGI in the experiment on K-562 leukemia, in the experiment with IGROV1 ovarian and with MDA-MB-435 was above 100 µM throughout.

With `C=CC(C)(C)c1cc([C@@H]2COc3cc(O)ccc3C2=O)c(O)c(O)c1OC`, the TGI in the experiment on MOLT-4 leukemia was above 100 µM; with SNB-19 CNS, 49 µM; in the experiment on HCT-116 colon, 32.6 µM; with TK-10 renal, above 100 µM; in the experiment on BT-549 breast it was 32.7 µM; in the experiment on HL-60(TB) leukemia, 73.3 µM. Further, the TGI was 35.4 µM in the experiment on UO-31 renal, 56.6 µM in the experiment on SNB-75 CNS, above 100 µM with K-562 leukemia and 39.2 µM in the experiment on MDA-MB-435.

As for `CSc1nc(C#N)c(N)n1C`, the TGI in the experiment on HOP-62 NSCLC, in the experiment with MOLT-4 leukemia, in the experiment with SNB-19 CNS, in the experiment on HCT-116 colon, in the experiment on TK-10 renal and in the experiment on BT-549 breast was above 100 µM each time. Further, the TGI with HL-60(TB) leukemia, with UO-31 renal, in the experiment on K-562 leukemia, in the experiment on IGROV1 ovarian and with MDA-MB-435 was above 100 µM each time.

Regarding `CCCCc1ccc(-n2sc3ncccc3c2=O)cc1`, the TGI was 36.2 µM with HOP-62 NSCLC; 57.7 µM with MOLT-4 leukemia; above 100 µM in the experiment on SNB-19 CNS; 26.3 µM with HCT-116 colon; 27.4 µM in the experiment on TK-10 renal; 35.7 µM with BT-549 breast. Besides, the TGI in the experiment with HL-60(TB) leukemia turned out to be 6.07 µM; in the experiment with UO-31 renal, 34.7 µM; with SNB-75 CNS it was 50.3 µM; in the experiment with IGROV1 ovarian, 33.3 µM; with MDA-MB-435, 37.5 µM.

Consider `COc1cc(C(c2cccc3ccccc23)N2C(=O)CCC2C(=O)NCc2ccccc2)cc(OC)c1OC` (stereo unspecified), for which the TGI in the experiment on HOP-62 NSCLC, in the experiment on MOLT-4 leukemia, in the experiment on SNB-19 CNS, in the experiment with HCT-116 colon, in the experiment with BT-549 breast and with HL-60(TB) leukemia was above 100 µM each time. Further, the TGI in the experiment with UO-31 renal, in the experiment with IGROV1 ovarian and in the experiment with MDA-MB-435 was above 100 µM each time.

`N#Cc1c(Nc2nc3ccccc3s2)c2ccccc2n2c1nc1ccccc12`: the TGI with HOP-62 NSCLC, in the experiment on MOLT-4 leukemia, with SNB-19 CNS, with HCT-116 colon, with TK-10 renal and with BT-549 breast was above 100 µM in each case. Moreover, the TGI was above 100 µM with HL-60(TB) leukemia; above 100 µM in the experiment on UO-31 renal; 81 µM in the experiment on SNB-75 CNS; above 100 µM in the experiment with IGROV1 ovarian; above 100 µM with MDA-MB-435.

For `CCOC(=O)c1c(NCc2ccccc2)n(-c2ccccc2)c(=S)n(-c2ccccc2)c1=O`, the TGI with MOLT-4 leukemia, in the experiment on SNB-19 CNS, with TK-10 renal, with BT-549 breast, with HL-60(TB) leukemia and with UO-31 renal was above 100 µM each time. Moreover, the TGI with SNB-75 CNS, in the experiment with K-562 leukemia, in the experiment with IGROV1 ovarian and in the experiment with MDA-MB-435 was above 100 µM throughout.

Consider `O=c1[nH]c2cc3cccnc3c(Cl)c2nc1CBr`, for which the TGI in the experiment on HOP-62 NSCLC was 29.4 µM; in the experiment on MOLT-4 leukemia, above 100 µM; with SNB-19 CNS, 19.7 µM; with HCT-116 colon, 25.8 µM; in the experiment with TK-10 renal, 61.8 µM; in the experiment on BT-549 breast, 89.8 µM. Besides, the TGI is 55.2 µM in the experiment with HL-60(TB) leukemia; 23.6 µM with UO-31 renal; above 100 µM with K-562 leukemia; 12.3 µM in the experiment with IGROV1 ovarian; 34.8 µM with MDA-MB-435.

As to `COP(=O)(OC)C(NC=O)P(=O)(OC)OC`, the TGI in the experiment with HOP-62 NSCLC, with MOLT-4 leukemia, with SNB-19 CNS, with HCT-116 colon, with TK-10 renal and in the experiment on BT-549 breast was above 100 µM throughout. The TGI in the experiment with HL-60(TB) leukemia, in the experiment on UO-31 renal, with K-562 leukemia, in the experiment on IGROV1 ovarian and in the experiment on MDA-MB-435 was above 100 µM in each case.

As to `Oc1ccc(Cl)cc1C1=N/C(=N\C/N=C2\N=C(c3cc(Cl)ccc3O)CC(c3ccccc3)N2)NC(c2ccccc2)C1` (stereo unspecified), the TGI in the experiment on HOP-62 NSCLC, in the experiment with SNB-19 CNS, in the experiment on HCT-116 colon, in the experiment on TK-10 renal, in the experiment on BT-549 breast and in the experiment on HL-60(TB) leukemia was above 100 µM in each case. Also, the TGI with UO-31 renal, in the experiment with SNB-75 CNS, in the experiment with K-562 leukemia, with IGROV1 ovarian and in the experiment on MDA-MB-435 was above 100 µM throughout.

In the case of `Nc1ccc(-c2nc3ccc(F)cc3s2)cc1`, the TGI in the experiment on HOP-62 NSCLC was 90.8 µM; in the experiment with MOLT-4 leukemia, above 100 µM; in the experiment with SNB-19 CNS, above 100 µM; in the experiment on HCT-116 colon it was above 100 µM; with TK-10 renal, 78.8 µM; with BT-549 breast it was above 100 µM. In addition, the TGI is above 100 µM in the experiment with UO-31 renal; 95 µM in the experiment on SNB-75 CNS; above 100 µM in the experiment on K-562 leukemia; 71.9 µM in the experiment on IGROV1 ovarian; 70.4 µM in the experiment with MDA-MB-435. The GI50 in the experiment on IGROV1 ovarian is 21.3 µM.

Regarding `O=C1c2ccccc2-c2nc(-c3ccccc3)cc3c2c1nc1ccccc13`, the TGI in the experiment with HOP-62 NSCLC is 47.2 µM; in the experiment on MOLT-4 leukemia, 36.4 µM; with SNB-19 CNS, 52.9 µM; in the experiment on HCT-116 colon it was 36.5 µM; in the experiment on TK-10 renal, 42.5 µM; in the experiment with BT-549 breast, 42.9 µM. Also, the TGI in the experiment with HL-60(TB) leukemia was 15 µM; in the experiment on UO-31 renal, 84.1 µM; in the experiment with K-562 leukemia it was above 100 µM; with IGROV1 ovarian it was 23 µM; with MDA-MB-435, 3.51 µM.

For `O=C1NC2CCCCC2N=C1/C(C(=O)c1ccccc1)=C(\O)c1ccccc1` (stereo unspecified), the TGI with HOP-62 NSCLC was above 100 µM; in the experiment on MOLT-4 leukemia, 79.3 µM; in the experiment with SNB-19 CNS, above 100 µM; in the experiment on HCT-116 colon it was above 100 µM; in the experiment on TK-10 renal it was above 100 µM; with BT-549 breast, 55.3 µM. Also, the TGI in the experiment with HL-60(TB) leukemia is above 100 µM; with UO-31 renal, 78.7 µM; with K-562 leukemia it was above 100 µM; with IGROV1 ovarian, above 100 µM; in the experiment on MDA-MB-435, above 100 µM.

For `CCn1c2ccc(O)c(C(=O)OC)c2c2cc3ccccc3c(O)c21`, the TGI with HOP-62 NSCLC is 45 µM; with MOLT-4 leukemia it was 73.5 µM; with SNB-19 CNS, above 100 µM; in the experiment on HCT-116 colon, 29.2 µM; in the experiment on TK-10 renal, 55.7 µM; with BT-549 breast, 50.7 µM. Besides, the TGI in the experiment with HL-60(TB) leukemia was 60 µM; with UO-31 renal, above 100 µM; in the experiment on K-562 leukemia, above 100 µM; in the experiment with IGROV1 ovarian, 31.2 µM; with MDA-MB-435, 48.3 µM.

Consider `O=S(=O)(O)c1cc(O)c2c(O)c(N=Nc3cccc4ccccc34)c(S(=O)(=O)O)cc2c1`, for which the TGI with HOP-62 NSCLC, with MOLT-4 leukemia, with SNB-19 CNS, in the experiment on HCT-116 colon, in the experiment with TK-10 renal and with BT-549 breast was above 100 µM each time. The TGI in the experiment with UO-31 renal, in the experiment with SNB-75 CNS, in the experiment with K-562 leukemia, with IGROV1 ovarian and in the experiment on MDA-MB-435 was above 100 µM in each case.
